Measurements taken from the supplement of paper PMC10307832.

Legend:
Assay in all cases: relative viability (nuclei count vs DMSO), 5 days (fraction); higher = more cells survive
[1] = compound: COc1cc2ncn(-c3cc(OCc4ccccc4C(F)(F)F)c(C(N)=O)s3)c2cc1OC + CC(C)C[C@H](NC(=O)[C@H](Cc1ccccc1)NC(=O)c1cnccn1)B(O)O [Bortezomib] (partner 0.002 µM)
Outline: (§1)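 Relative viability is defined as nuclei in treated wells over nuclei in vehicle wells. Duplicate plates were run and medians reported. Lung cancer cell lines in 1536-well plates were dosed by pin tool one day after seeding, with one drug or with a fixed anchor-drug dose plus five library-drug doses (not always all listed) in √10 steps, and nuclei were counted after 5 days.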

[2] = compound: COc1cc2ncn(-c3cc(OCc4ccccc4C(F)(F)F)c(C(N)=O)s3)c2cc1OC + Nc1nc2[nH]cc(CCc3ccc(C(=O)N[C@@H](CCC(=O)O)C(=O)O)cc3)c2c(=O)[nH]1 [Pemetrexed] (partner 0.2 µM)
Outline: as §1

[3] = compound: COc1cc2ncn(-c3cc(OCc4ccccc4C(F)(F)F)c(C(N)=O)s3)c2cc1OC + Cc1nc(NC(=O)N2CCC[C@H]2C(N)=O)sc1-c1ccnc(C(C)(C)C(F)(F)F)c1 [Alpelisib] (partner 2 µM)
Outline: as §1

[4] = compound: COc1cc2ncn(-c3cc(OCc4ccccc4C(F)(F)F)c(C(N)=O)s3)c2cc1OC + O=C(c1cc(Cc2n[nH]c(=O)c3ccccc23)ccc1F)N1CCN(C(=O)C2CC2)CC1 [Olaparib] (partner 8 µM)
Outline: as §1

Cell Line | relative viability ([1]; first compound 0.05 µM) | relative viability ([1]; first compound 0.1581 µM) | relative viability ([1]; first compound 0.5 µM) | relative viability ([1]; first compound 1.581 µM) | relative viability ([1]; first compound 5 µM) | relative viability ([2]; first compound 0.05 µM) | relative viability ([2]; first compound 0.1581 µM) | relative viability ([2]; first compound 0.5 µM) | relative viability ([2]; first compound 1.581 µM) | relative viability ([2]; first compound 5 µM) | relative viability ([3]; first compound 0.05 µM) | relative viability ([3]; first compound 0.1581 µM) | relative viability ([3]; first compound 0.5 µM) | relative viability ([3]; first compound 1.581 µM) | relative viability ([3]; first compound 5 µM) | relative viability ([4]; first compound 0.05 µM) | relative viability ([4]; first compound 0.1581 µM) | relative viability ([4]; first compound 0.5 µM) | relative viability ([4]; first compound 1.581 µM) | relative viability ([4]; first compound 5 µM)
LC-2-ad | 0.866 | 0.516 | 0.399 | 0.108 | 0.106 | 0.244 | 0.281 | 0.248 | 0.213 | 0.171 | 0.791 | 0.784 | 0.135 | 0.113 | 0.1 | 0.431 | 0.593 | 0.466 | 0.173 | 0.176
LCLC-97TM1 | 0.77 | 0.71 | 0.354 | 0.0568 | 0.0894 | 0.215 | 0.217 | 0.147 | 0.11 | 0.0881 | 0.244 | 0.238 | 0.144 | 0.139 | 0.127 | 0.201 | 0.222 | 0.189 | 0.0731 | 0.0698
LCLC-103H | 1 | 1.03 | 0.744 | 0.522 | 0.208 | 0.449 | 0.48 | 0.442 | 0.27 | 0.195 | 0.966 | 1.04 | 0.997 | 0.389 | 0.248 | 0.687 | 0.768 | 0.651 | 0.281 | 0.212
LOU-NH91 | 0.434 | 0.368 | 0.405 | 0.348 | 0.346 | 0.344 | 0.357 | 0.362 | 0.291 | 0.264 | 0.705 | 0.843 | 0.626 | 0.447 | 0.488 | 0.893 | 0.89 | 0.688 | 0.382 | 0.273
LU99A | 1.14 | 1.08 | 0.898 | 0.206 | 0.201 | 0.204 | 0.169 | 0.204 | 0.154 | 0.146 | 0.488 | 0.495 | 0.36 | 0.189 | 0.167 | 0.241 | 0.273 | 0.225 | 0.152 | 0.108
LXF-289 | 0.84 | 0.781 | 0.649 | 0.0959 | 0.0616 | 0.897 | 0.674 | 0.597 | 0.184 | 0.0849 | 0.994 | 0.801 | 0.138 | 0.0881 | 0.0604 | 0.704 | 0.817 | 0.269 | 0.0639 | 0.0504
NCI-H23 | 1.14 | 0.847 | 0.648 | 0.132 | 0.117 | 0.648 | 0.583 | 0.208 | 0.184 | 0.112 | 0.836 | 0.363 | 0.326 | 0.137 | 0.102 | 0.187 | 0.239 | 0.166 | 0.128 | 0.0947
NCI-H322M | 1.16 | 1.45 | 1.21 | 0.878 | 0.45 | 0.682 | 0.707 | 0.524 | 0.429 | 0.352 | 0.797 | 0.847 | 0.687 | 0.426 | 0.336 | 0.717 | 0.778 | 0.594 | 0.475 | 0.423
NCI-H441 | 0.565 | 0.463 | 0.273 | 0.154 | 0.176 | 0.248 | 0.27 | 0.189 | 0.148 | 0.158 | 0.771 | 0.506 | 0.161 | 0.177 | 0.156 | 0.349 | 0.34 | 0.242 | 0.175 | 0.146
NCI-H460 | 1.08 | 0.805 | 0.487 | 0.0103 | 0.0108 | 0.0574 | 0.0651 | 0.0638 | 0.0225 | 0.0159 | 0.51 | 0.537 | 0.0496 | 0.0115 | 0.0095 | 0.468 | 0.357 | 0.0734 | 0.0365 | 0.0215
NCI-H520 | 0.689 | 0.568 | 0.25 | 0.169 | 0.144 | 0.301 | 0.663 | 0.247 | 0.204 | 0.171 | 1.08 | 0.882 | 0.508 | 0.186 | 0.158 | 0.198 | 0.247 | 0.193 | 0.182 | 0.142
NCI-H596 | – | 1.11 | 0.828 | 0.638 | 0.312 | 0.559 | 0.463 | 0.454 | 0.359 | 0.337 | 0.496 | 0.514 | 0.35 | 0.29 | 0.23 | 0.542 | 0.692 | 0.765 | 0.413 | 0.306
NCI-H647 | 1.2 | 0.814 | 0.324 | 0.0759 | 0.0904 | 0.179 | 0.176 | 0.0943 | 0.06 | 0.0757 | 1.23 | 1.1 | 0.214 | 0.079 | 0.0802 | 0.474 | 0.331 | 0.103 | 0.0536 | 0.0596
NCI-H650 | 0.89 | 0.78 | 0.512 | 0.163 | 0.214 | 1.01 | 0.923 | 0.768 | 0.261 | 0.458 | 1.11 | 1.1 | 0.698 | 0.185 | 0.29 | 0.367 | 0.41 | 0.26 | 0.15 | 0.272
NCI-H661 | 0.818 | 0.819 | 0.485 | 0.217 | 0.257 | 0.989 | 0.819 | 0.482 | 0.303 | 0.269 | 0.855 | 0.367 | 0.499 | 0.26 | 0.224 | 0.68 | 0.681 | 0.349 | 0.332 | 0.274
